Data on 11 compounds can be found in ChEMBL document CHEMBL4033731, “Structural development of 1,2,3,4-tetrahydroisoquinoline-type positive allosteric modulators of prostacyclin receptor (IPPAMs) to improve metabolic stability, and investigation of metabolic fate” (Bioorg Med Chem Lett, 2017).

The target of data set [1] is Prostacyclin receptor (Homo sapiens) (UniProt P43119). Nature of the data set: Positive allosteric modulator activity at human prostacyclin receptor expressed in CHO-K1 cells assessed as compound concentration needed to shift agonist concentration response curve leftward by 2-fold by measuring CAMP accumulation. It is filed as cell-based.
Prostacyclin receptor (Homo sapiens), sequence (P43119 whole entry): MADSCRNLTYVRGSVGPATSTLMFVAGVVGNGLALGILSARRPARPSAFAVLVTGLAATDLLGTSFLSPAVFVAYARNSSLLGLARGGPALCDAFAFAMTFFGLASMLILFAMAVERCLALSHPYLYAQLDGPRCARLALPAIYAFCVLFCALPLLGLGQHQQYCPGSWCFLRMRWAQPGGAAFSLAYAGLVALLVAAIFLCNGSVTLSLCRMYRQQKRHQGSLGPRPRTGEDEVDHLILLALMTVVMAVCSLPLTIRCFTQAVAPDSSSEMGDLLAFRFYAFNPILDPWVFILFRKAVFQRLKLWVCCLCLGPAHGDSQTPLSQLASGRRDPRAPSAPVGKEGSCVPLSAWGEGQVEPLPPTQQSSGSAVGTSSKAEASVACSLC
Data set [2] is described as follows: Half life in human hepatic microsomes at 0.1 uM by HPLC-MS/MS method. Type of data set: ADME, Microsome. The following applies: liver microsomes. (Liver microsomes are vesicles of endoplasmic reticulum, rich in cytochrome P450 enzymes.)
A short description of data set [3]: Drug metabolism in human hepatic microsomes assessed as peak area for parent compound at 10 uM incubated for 90 mins at 37 degC by HPLC-MS/MS method relative to control. Type of data set: ADME, Microsome. As to conditions: liver microsomes, read-out: Stability.
A short description of data set [4]: Drug metabolism in human hepatic microsomes assessed as 2-((1-tert-butyl-1H-tetrazol-5-yl)(3,4-dihydroisoquinolin-2(1H)-yl)methyl)-4-fluorophenol formation at 10 uM incubated for 90 mins at 37 degC by HPLC-MS/MS method relative to control. As to conditions: 1.5 h. It is filed as ADME, Liver, Microsome.
Data set [5] can be described thus: Drug metabolism in human hepatic microsomes assessed as 2-((3,4-dihydroisoquinolin-2(1H)-yl)(1-(1-hydroxy-2-methylpropan-2-yl)-1H-tetrazol-5-yl)methyl)-6-fluorophenol formation at 10 uM incubated for 90 mins at 37 degC by HPLC-MS/MS method relative to control. Type of data set: ADME, Liver, Microsome. The following applies: 1.5 h.
In data set [6] the target is Prostacyclin receptor (Homo sapiens) (UniProt P43119). Nature of the data set: Positive allosteric modulator activity at human prostacyclin receptor expressed in CHO-K1 cells assessed as compound concentration needed to shift agonist concentration response curve leftward by 2-fold by measuring CAMP accumulation at 100 uM. It is filed as cell-based.
A short description of data set [7]: Drug level in human hepatic microsomes treated with 10 uM of 2-((1-tert-butyl-1H-tetrazol-5-yl)(3,4-dihydroisoquinolin-2(1H)-yl)methyl)-6-fluorophenol assessed as drug formation at 10 uM incubated for 90 mins at 37 degC by HPLC-MS/MS method relative to control. The following applies: 1.5 h. Type of data set: ADME, Liver, Microsome.

Calls of active or inactive are those of the source. The rule behind the calls is not given here.

For `COc1ccccc1C(c1nnnn1C(C)(C)C)N1CCC2CCCCC2C1` (centres undefined), the Activity in data set [1] is 6.2 µM. Moreover, in data set [2], the half-life – broadly, how long it takes for the measured level to halve – at 0.1 µM was 3 min.

For the compound `COc1ccccc1C(c1nnnn1C(C)(C)C)N1CCc2ccc(F)cc2C1` (centres undefined), the Activity in data set [1] is 15.2 µM. Also, the half-life at 0.1 µM in data set [2] worked out at 6 min.

Regarding `CC(C)(C)n1nnnc1C(c1cccc(F)c1O)N1CCc2ccccc2C1` (centres undefined), the Activity in data set [1] came out at 8.2 µM. Also, the half-life at 0.1 µM in data set [2] was 21 min. Besides, in data set [3], the remaining at 1.5 h, 10 µM was 1.04%. Moreover, the Drug metabolism entry in data set [4] and in data set [5] was “Metabolite_Detected” in each case.

`CC(C)(C)n1nnnc1C(c1ccccc1F)N1CCc2ccccc2C1` (centres undefined): in data set [1], the Activity was determined as 4.7 µM. For the same compound, the half-life at 0.1 µM in data set [2] amounted to 3 min.

For `CC(C)(C)NC(=O)C(c1ccccc1)N1CCc2ccccc2C1` (centres undefined), the outcome in data set [1] and in data set [6] was inactive. The compound also yielded a half-life at 0.1 µM in data set [2] of 6 min.

`CC(C)(C)n1nnnc1C(c1cccc(O)c1O)N1CCc2ccccc2C1` (centres undefined): the Drug metabolism result in data set [7] is reported as “Metabolite_Detected”.

For `CC(C)(C)n1nnnc1C(c1ccccc1O)N1CCc2ccccc2C1` (centres undefined), the Activity in data set [1] is 1.4 µM. Also, the half-life at 0.1 µM in data set [2] was determined as 7 min.

In the case of `CC(C)(C)n1nnnc1C(c1ccccc1)N1CCc2ccccc2C1` (centres undefined), the Activity in data set [1] came to 6.9 µM. The same compound came in with a half-life at 0.1 µM in data set [2] of 6 min.

Turning to `CC(C)(C)n1nnnc1C(c1cc(F)ccc1O)N1CCc2ccccc2C1` (centres undefined), the Activity in data set [1] was 12 µM. In addition, the half-life at 0.1 µM in data set [2] was found to be 5 min.

Turning to `COc1ccccc1C(c1nnnn1C(C)(C)C)N1CCc2ccccc2C1` (centres undefined), the Activity in data set [1] was 4.3 µM. In addition, the half-life at 0.1 µM in data set [2] came out at 8 min.

As to `CC(C)(CO)n1nnnc1C(c1cccc(F)c1O)N1CCc2ccccc2C1` (centres undefined), in data set [7], the Drug metabolism entry is reported as “Metabolite_Detected”.
